In ChEMBL document CHEMBL1139631, “Inhibition of hydrogen peroxide-induced necrotic cell death with 3-amino-2-indolylmaleimide derivatives” (Bioorg Med Chem Lett, 2005) one finds Activity data, which are given here for two molecules.

Holding throughout (design): scale not given: the % may be the effect or the level left
For assay [1], the target named is Protein kinase C delta type (Homo sapiens) (UniProt Q05655). The assay is described as follows: Percentage inhibition of Protein kinase C delta at 50 uM.
For assay [2], the target named is Protein kinase C beta type (Homo sapiens) (UniProt P05771). The assay is described as follows: Percentage inhibition of Protein kinase C beta 2 at 50 uM.
Assay [3] has as its target Protein kinase C alpha type (Homo sapiens) (UniProt P17252). The assay is described as follows: Percentage inhibition of Protein kinase C alpha at 50 uM.
Assay [4] addresses T1, Protein kinase C zeta type (Homo sapiens) (UniProt Q05513).
T1 sequence (whole entry): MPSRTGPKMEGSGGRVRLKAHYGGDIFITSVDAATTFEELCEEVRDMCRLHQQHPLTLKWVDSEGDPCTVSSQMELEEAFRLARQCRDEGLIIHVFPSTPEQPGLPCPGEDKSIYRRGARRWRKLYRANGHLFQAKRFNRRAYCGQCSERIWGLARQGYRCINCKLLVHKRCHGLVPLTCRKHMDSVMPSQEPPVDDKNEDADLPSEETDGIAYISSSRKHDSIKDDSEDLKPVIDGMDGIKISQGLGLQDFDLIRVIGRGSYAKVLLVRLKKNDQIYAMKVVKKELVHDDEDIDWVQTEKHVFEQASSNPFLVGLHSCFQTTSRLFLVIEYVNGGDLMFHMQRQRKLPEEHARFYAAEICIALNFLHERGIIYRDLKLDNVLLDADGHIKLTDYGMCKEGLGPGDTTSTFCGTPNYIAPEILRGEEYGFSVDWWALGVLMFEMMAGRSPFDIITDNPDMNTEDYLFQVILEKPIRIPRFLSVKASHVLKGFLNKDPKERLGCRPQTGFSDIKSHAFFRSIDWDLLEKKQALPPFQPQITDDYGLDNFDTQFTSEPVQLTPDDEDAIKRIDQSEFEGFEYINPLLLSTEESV
The assay is described as follows: Percentage inhibition against Protein kinase C zeta at 50 uM.

Assay [5] addresses T2, Protein kinase C epsilon type (Homo sapiens) (UniProt Q02156).
T2 sequence (whole entry): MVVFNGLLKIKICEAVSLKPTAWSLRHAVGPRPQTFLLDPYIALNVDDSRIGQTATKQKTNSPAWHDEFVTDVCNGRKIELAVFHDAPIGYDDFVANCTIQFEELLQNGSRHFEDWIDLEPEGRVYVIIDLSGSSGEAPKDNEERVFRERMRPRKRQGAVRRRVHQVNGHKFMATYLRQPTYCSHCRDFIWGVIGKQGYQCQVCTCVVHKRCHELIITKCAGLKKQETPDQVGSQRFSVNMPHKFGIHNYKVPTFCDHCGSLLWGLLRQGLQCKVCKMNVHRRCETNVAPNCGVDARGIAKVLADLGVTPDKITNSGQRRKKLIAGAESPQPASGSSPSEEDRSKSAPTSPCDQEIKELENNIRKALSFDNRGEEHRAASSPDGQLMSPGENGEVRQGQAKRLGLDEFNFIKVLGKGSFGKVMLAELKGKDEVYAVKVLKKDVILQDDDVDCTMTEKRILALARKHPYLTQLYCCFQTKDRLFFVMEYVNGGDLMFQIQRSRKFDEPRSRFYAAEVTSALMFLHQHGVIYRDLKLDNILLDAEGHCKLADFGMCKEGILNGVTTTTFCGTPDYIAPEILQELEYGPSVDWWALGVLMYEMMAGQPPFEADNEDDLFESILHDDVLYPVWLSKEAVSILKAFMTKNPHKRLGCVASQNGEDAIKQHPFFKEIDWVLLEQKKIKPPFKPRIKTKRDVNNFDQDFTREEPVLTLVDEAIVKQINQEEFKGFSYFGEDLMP
Description: Percentage inhibition of Protein kinase C epsilon at 50 uM.

For assay [6], the target named is T3, Protein kinase C iota type (Homo sapiens) (UniProt P41743).
T3 sequence (whole entry): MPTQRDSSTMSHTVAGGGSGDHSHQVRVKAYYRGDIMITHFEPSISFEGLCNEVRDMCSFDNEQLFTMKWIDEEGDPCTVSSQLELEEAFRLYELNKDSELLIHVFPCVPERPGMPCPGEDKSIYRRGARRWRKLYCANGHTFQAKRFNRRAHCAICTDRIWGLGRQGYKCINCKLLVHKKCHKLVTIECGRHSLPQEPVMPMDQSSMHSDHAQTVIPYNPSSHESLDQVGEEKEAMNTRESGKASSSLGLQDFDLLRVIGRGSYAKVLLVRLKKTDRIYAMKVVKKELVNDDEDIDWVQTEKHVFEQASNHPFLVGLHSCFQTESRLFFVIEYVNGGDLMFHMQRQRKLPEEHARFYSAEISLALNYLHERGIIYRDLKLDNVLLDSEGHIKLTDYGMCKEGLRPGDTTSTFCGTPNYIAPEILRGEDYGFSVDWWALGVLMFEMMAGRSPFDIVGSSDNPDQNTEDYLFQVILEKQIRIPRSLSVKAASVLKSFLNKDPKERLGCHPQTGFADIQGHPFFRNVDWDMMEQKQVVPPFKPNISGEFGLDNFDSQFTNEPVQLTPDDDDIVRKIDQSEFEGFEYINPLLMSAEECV
The assay is described as follows: Percentage inhibition of Protein kinase C iota at 50 uM.

Assay [7] concerns the target T4, Serine/threonine-protein kinase D1 (Homo sapiens) (UniProt Q15139).
T4 sequence (whole entry): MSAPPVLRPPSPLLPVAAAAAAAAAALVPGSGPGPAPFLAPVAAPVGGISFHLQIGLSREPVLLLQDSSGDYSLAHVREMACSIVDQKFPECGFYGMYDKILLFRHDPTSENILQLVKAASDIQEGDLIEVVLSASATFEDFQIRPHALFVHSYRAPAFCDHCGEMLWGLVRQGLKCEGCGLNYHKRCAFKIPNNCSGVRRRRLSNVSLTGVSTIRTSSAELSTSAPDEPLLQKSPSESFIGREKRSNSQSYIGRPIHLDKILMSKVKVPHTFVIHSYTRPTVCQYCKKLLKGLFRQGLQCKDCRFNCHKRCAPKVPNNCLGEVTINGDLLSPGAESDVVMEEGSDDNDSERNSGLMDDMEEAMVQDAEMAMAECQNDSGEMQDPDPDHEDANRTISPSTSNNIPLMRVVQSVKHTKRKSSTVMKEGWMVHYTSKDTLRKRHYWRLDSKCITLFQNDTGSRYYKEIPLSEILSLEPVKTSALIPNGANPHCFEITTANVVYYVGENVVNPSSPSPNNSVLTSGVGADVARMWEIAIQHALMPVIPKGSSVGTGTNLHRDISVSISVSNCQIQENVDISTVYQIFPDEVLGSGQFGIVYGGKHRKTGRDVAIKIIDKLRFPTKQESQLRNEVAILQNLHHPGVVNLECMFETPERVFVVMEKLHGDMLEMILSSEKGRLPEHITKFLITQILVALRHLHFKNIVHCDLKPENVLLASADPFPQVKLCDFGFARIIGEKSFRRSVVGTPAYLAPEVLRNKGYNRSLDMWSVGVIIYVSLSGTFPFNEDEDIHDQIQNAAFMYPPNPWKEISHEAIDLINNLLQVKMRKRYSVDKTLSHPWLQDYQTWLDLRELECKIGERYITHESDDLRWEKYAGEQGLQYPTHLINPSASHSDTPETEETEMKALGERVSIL
Description: Percentage inhibition of Protein kinase C mu at 50 uM.

Assay [8] deals with Ribosomal protein S6 kinase beta-1 (Homo sapiens) (UniProt P23443). Description: Percentage inhibition of Ribosomal protein S6 kinase at 50 uM.
The target of assay [9] is Protein kinase C gamma type (Homo sapiens) (UniProt P05129). The assay is described as follows: Percentage inhibition of Protein kinase C gamma at 50 uM.
For assay [10], the target named is Protein kinase C beta type (Homo sapiens) (UniProt P05771). Description: Percentage inhibition of Protein kinase C beta 1 at 50 uM.
Assay [11] has as its target Protein kinase C eta type (Homo sapiens) (UniProt P24723). The assay is described as follows: Percentage inhibition of Protein kinase C eta at 50 uM.
The target of assay [12] is Protein kinase C theta type (Homo sapiens) (UniProt Q04759). Description: Percentage inhibition of Protein kinase C theta at 50 uM.
Protein kinase C theta type (Homo sapiens), sequence (Q04759 whole entry, looked up): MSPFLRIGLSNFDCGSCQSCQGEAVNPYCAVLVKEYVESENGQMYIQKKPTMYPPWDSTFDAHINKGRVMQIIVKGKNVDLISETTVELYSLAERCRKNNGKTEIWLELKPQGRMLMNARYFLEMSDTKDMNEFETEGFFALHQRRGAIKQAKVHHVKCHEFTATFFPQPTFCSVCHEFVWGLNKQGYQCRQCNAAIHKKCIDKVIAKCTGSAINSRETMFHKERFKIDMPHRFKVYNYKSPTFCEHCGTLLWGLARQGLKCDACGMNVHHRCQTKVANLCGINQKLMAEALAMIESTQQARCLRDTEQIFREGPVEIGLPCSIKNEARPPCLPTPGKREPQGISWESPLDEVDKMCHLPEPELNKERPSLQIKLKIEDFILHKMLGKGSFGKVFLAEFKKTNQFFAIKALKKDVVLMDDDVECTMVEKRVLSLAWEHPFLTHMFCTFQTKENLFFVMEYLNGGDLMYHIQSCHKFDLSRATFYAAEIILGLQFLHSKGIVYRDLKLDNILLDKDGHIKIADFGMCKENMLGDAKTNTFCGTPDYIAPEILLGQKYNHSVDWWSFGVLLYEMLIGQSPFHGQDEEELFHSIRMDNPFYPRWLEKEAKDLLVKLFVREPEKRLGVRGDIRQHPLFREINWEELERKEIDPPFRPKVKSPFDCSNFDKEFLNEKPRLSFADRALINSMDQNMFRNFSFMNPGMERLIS

Protein kinase C beta type (Homo sapiens), sequence (P05771 2-671 limits assumed): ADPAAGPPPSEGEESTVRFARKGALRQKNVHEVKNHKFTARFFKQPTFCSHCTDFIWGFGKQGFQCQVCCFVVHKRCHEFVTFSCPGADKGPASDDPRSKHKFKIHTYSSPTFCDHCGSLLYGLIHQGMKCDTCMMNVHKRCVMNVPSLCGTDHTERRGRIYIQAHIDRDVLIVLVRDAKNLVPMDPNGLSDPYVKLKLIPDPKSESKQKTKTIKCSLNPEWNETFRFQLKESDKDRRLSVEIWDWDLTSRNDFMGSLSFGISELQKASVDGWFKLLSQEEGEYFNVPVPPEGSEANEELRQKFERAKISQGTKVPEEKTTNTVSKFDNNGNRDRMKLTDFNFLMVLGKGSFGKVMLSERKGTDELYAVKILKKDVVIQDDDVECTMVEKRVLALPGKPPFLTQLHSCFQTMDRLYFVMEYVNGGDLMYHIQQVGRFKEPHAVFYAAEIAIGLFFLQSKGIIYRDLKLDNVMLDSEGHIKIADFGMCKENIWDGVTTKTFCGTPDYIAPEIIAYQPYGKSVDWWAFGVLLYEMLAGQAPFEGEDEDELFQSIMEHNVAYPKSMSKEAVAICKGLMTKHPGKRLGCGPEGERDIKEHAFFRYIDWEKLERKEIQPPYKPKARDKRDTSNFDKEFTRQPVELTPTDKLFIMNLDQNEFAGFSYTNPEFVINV
Ribosomal protein S6 kinase beta-1 (Homo sapiens), sequence (P23443 whole entry, looked up): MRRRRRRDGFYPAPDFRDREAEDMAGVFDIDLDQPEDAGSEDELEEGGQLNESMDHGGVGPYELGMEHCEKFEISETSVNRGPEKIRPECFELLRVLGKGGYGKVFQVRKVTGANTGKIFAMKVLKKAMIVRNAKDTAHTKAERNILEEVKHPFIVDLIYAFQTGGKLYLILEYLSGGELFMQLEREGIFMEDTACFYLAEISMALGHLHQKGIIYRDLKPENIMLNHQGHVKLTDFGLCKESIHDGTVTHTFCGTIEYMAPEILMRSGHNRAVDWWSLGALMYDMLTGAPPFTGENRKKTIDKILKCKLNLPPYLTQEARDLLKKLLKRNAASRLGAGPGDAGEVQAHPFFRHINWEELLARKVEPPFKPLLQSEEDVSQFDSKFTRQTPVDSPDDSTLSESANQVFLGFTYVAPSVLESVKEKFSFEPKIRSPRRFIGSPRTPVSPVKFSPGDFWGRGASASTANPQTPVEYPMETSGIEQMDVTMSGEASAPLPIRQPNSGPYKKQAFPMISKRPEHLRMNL
Protein kinase C eta type (Homo sapiens), sequence (P24723 whole entry): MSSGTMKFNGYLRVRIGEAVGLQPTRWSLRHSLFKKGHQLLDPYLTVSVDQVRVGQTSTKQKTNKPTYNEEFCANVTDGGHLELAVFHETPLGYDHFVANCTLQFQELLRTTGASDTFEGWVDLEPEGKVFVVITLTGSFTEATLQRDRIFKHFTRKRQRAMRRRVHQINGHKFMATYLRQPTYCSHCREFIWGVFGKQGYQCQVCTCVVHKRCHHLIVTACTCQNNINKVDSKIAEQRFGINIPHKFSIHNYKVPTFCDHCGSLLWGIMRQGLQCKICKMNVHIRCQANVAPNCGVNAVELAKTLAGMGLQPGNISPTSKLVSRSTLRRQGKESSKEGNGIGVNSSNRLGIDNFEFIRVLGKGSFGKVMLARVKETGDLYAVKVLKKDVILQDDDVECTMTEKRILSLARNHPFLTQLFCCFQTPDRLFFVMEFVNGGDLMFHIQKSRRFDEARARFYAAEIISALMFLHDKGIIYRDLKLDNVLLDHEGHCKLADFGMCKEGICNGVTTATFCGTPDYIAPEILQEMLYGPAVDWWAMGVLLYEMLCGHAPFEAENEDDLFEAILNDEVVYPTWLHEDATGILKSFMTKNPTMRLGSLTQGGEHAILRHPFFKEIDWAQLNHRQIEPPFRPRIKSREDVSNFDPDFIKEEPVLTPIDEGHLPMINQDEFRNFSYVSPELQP
Protein kinase C delta type (Homo sapiens), sequence (Q05655 whole entry, looked up): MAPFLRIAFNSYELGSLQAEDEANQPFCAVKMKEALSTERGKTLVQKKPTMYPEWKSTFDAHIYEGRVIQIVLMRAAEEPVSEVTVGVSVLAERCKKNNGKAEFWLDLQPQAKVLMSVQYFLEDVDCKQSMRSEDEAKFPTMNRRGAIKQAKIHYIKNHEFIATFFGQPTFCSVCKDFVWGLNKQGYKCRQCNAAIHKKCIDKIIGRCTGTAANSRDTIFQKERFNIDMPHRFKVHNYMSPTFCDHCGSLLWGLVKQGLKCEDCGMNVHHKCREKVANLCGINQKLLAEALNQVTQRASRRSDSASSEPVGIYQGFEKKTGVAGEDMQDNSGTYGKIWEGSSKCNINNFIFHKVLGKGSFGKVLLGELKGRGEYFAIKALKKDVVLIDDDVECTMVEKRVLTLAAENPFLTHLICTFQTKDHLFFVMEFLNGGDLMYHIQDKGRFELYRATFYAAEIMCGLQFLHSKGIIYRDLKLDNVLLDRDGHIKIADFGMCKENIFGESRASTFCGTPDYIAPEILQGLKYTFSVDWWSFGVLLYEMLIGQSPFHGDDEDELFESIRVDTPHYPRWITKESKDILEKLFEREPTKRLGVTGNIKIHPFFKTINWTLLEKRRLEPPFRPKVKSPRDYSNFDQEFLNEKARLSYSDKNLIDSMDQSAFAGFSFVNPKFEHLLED

On to `CCCCCNC1=C(c2cn(C)c3ccccc23)C(=O)N(C)C1=O`, for which the Activity in [1] turned out to be 108%; in assay [2], 106%; in assay [3] it was 95%; in [4], 100%; in assay [5] it was 95%; in assay [6], 96%. Also, the Activity in assay [7] stood at 97%; in [8], 96%; in [9], 115%; in assay [10], 84%; in [11], 98%; in [12], 100%.
Turning to `CN1C(=O)C(c2c[nH]c3ccccc23)=C(c2cn(CCCN)c3ccccc23)C1=O`, the Activity in assay [1] was determined as 82%; in [2], 84%; in assay [3], 66%; in [4], 85%; in assay [5], 10%; in assay [6], 87%. Also, the Activity in assay [7] is 88%; in assay [8], 28%; in [9], 85%; in assay [10], 78%; in [11], 55%; in [12], 78%.
